{
  "source": "patent US10690661B2",
  "about": "“Yeast-based biosensor” (priority 2014, dated 2020)",
  "key": {"[1]": {"molecular_target": "Mutant receptors derived from RecCys1 mutagenesis", "assay": "Dose response of mutant receptors evolved for cystatin chimera Cys2", "type": "cell-based, Saccharomyces cerevisiae", "details": "FIG. 9b", "description": "(§1) Receptor activation was coupled to green fluorescent protein (GFP) expression by cloning GFP downstream of the Ste2p-activated FUS1 promoter. Therefore a receptor mutant that is successfully activated by the POI will result in the cell fluorescing green. The discriminating power of the screen is improved by including an internal control, constitutive expression of mKate (a red fluorescent protein). Red fluorescence corresponds to cell size, and allows us to normalize the GFP measurement for more accurate sorting. […] The initial HTS has false positive (FP) rates of 20% and false negative (FN) rates of 10%. The FP and FN rate is overcome by doing multiple rounds of enrichment. In four rounds of enrichment, a population of cells is isolated that originally was 1 in 10^6.\n(§2) Initial attempts to evolve directly for the cystatin/GSS peptides were unsuccessful. To take smaller evolutionary steps, chimera peptides were designed that were more similar to α-factor. Receptors were evolved to recognize peptide that contain several changes in the peptide sequence (FIG. 9a-c).\nReceptors have been successfully evolved for some chimeras. Two steps have been completed for cystatin (evolving for Cys1 and then using that receptor as a parent to evolve for Cys2) and one step for GSS."}, "[2]": {"tested_on": "evolved cystatin receptor", "type": "cell-based, Saccharomyces cerevisiae"}, "[3]": {"molecular_target": "Mutant receptors (RecCys1)", "assay": "Dose response of mutant receptors evolved for cystatin chimera Cys1", "type": "cell-based, Saccharomyces cerevisiae", "details": "FIG. 9a", "description": "as §1, §2"}, "[4]": {"tested_on": "Mutant receptor RecGssB", "assay": "Dose response of mutant receptors evolved for GSS chimera GssB", "type": "cell-based, Saccharomyces cerevisiae", "description": "as §1, §2"}, "[5]": {"molecular_target": "T1, native Ste2 receptor (Saccharomyces cerevisiae, UniProt D6VTK4, A176T/D201G/D370N/S34T)", "T1 construct": "contains yeast Sterile2 (Ste2) receptor between the constitutive GPD promoter and the CYC1 terminator; expressed in transfected cells; host or cells: S. cerevisiae MPY578t5 derivatives (native STE2 removed), plasmid pJB036", "T1 sequence (D6VTK4 whole entry S34T/A176T/D201G/D370N)": "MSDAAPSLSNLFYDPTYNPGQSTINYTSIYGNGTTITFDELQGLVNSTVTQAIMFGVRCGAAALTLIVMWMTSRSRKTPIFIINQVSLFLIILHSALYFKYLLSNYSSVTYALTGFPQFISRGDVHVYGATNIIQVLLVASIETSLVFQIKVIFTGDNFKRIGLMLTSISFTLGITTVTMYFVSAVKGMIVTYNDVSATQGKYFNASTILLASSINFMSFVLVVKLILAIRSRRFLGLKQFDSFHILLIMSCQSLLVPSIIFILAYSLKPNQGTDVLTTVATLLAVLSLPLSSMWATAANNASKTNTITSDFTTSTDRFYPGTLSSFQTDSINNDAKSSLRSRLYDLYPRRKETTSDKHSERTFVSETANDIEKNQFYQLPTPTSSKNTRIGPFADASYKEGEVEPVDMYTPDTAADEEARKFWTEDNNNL", "details": "physiological concentrations; previous literature; cited from earlier work"}, "[6]": {"molecular_target": "Mutant 56.5 (mutant Ste2 receptor)", "assay": "GFP/RFP reporter dose response, isolated mutant receptor Mutant 56.5", "details": "alpha factor on Mutant 56.5, compared with native Ste2; FIG. 4B"}, "[7]": {"tested_on": "evolved receptors (from Ste2p)", "assay": "Sensitivity enhancement dose response of evolved receptors", "type": "cell-based, Saccharomyces cerevisiae", "details": "FIG. 11"}, "[8]": {"molecular_target": "Mutant 44.1 (mutant Ste2 receptor)", "assay": "GFP/RFP reporter dose response, isolated mutant receptor Mutant 44.1", "details": "alpha factor on Mutant 44.1, compared with native Ste2; FIG. 3B"}, "[9]": {"tested_on": "mutant Ste2 receptors isolated for Variant 56", "assay": "GFP/RFP reporter dose response, mutants isolated for sensitivity to ligand Variant 56"}, "[10]": {"tested_on": "re-mutagenized mutant Ste2 receptor library", "assay": "Screen of library made by re-mutagenizing a Variant 56-sensitive mutant receptor", "type": "cell-based, Saccharomyces cerevisiae", "details": "FIG. 7a", "description": "Specificity can be increased with iterative selection and counter-selection (FIG. 7b). […] Round 2 library mutants were also screened for lack of activity for α-factor, confirming the evolution of receptors for specificity against α-factor (FIG. 7c)."}, "[11]": {"molecular_target": "T1, native Ste2 receptor", "assay": "GFP/RFP reporter dose response in yeast expressing the native Ste2 receptor", "type": "cell-based", "details": "compared to the native ligand"}},
  "note": "“Also recorded” adds a separate entry of the source.",
  "data": [
    {"sequence": "ALALKPGEPMY [Cys2]", "values": [
      {"measurement": "EC50 relative to RecSte2p", "setting": "[1]", "value": "lower"}
    ]},
    {"sequence": "ALDFAVGEYNK (listed as Cystatin chimera) [Cys5]", "values": [
      {"measurement": "response of evolved cystatin receptor", "setting": "[2]; FIG. 13B", "value": "rises in response"},
      {"measurement": "response of receptor mutants evolved from Ste2p (dose response curve)", "setting": "[2]; FIG. 14A-C", "value": "respond"}
    ]},
    {"sequence": "HALALKPGEPMY [Cys1]", "values": [
      {"measurement": "EC50 relative to RecSte2p", "setting": "[3]", "value": "lower"}
    ]},
    {"sequence": "LRLLALKPGQPLYGR [Gss1]", "values": [
      {"measurement": "effect of GssB-enhancing receptor mutations on response", "setting": "[4]; receptors carrying mutations that enhance the response to GssB", "value": "enhance response"}
    ]},
    {"sequence": "WAWLQLKPGQPMY", "values": [
      {"measurement": "response of Ste2 to the ligand", "setting": "[5]", "value": "very low response, if any"}
    ]},
    {"sequence": "WHWLQLKPGEPLYGR [GssB]", "values": [
      {"measurement": "EC50 relative to RecSte2p", "setting": "[4]; FIG. 9c", "value": "lower"}
    ]},
    {"sequence": "WHWLQLKPGQPMY [α-factor]", "values": [
      {"measurement": "EC50 relative to Ste2", "setting": "[6]", "value": "significantly higher"},
      {"measurement": "concentration at which evolved receptors respond, relative to wild type/Ste2p receptor", "setting": "[7]", "value": "concentrations lower than the wild type"},
      {"measurement": "response of evolved receptor to the native ligand", "setting": "[4]; FIG. 9d", "value": "do not respond; also recorded: no longer responds"},
      {"measurement": "EC50 relative to Ste2", "setting": "[8]", "value": "significantly higher"},
      {"measurement": "activity of isolated mutants for the native pheromone", "setting": "[9]; FIG. 4B", "value": "maintained some activity"}
    ]},
    {"sequence": "WHYLQLKPGQPMY [Variant 56]", "values": [
      {"measurement": "response of Ste2 to the ligand", "setting": "[5]", "value": "very low response, if any"},
      {"measurement": "activity of new library after second round of mutagenesis", "setting": "[10]", "value": "increased activity"},
      {"measurement": "activity of the native Ste2 receptor for the ligand", "setting": "[11]", "value": "little activity"},
      {"measurement": "EC50 relative to Ste2", "setting": "[9]; all five isolated mutants, FIG. 4A, FIG. 5", "value": "significantly lower"}
    ]}
  ]
}
